Counter-ions that a name gives are not always drawn. Like-named read-outs stand apart in the source and are kept apart here.
Experiments:
[1] = system: Zika virus PF13; assay: Zika virus infection of HeLa Kyoto cells, immunofluorescence infectivity readout (Example 1); format: cell-based; settings: MOI 0.5, 3 and 5, 600, 200, 60 μg/ml, 1 h pre-incubation, 48 h
Procedure: (§1) Cells were detached and counted. […] 50 μl of diluted virus or media (uninfected control) was immediately added. […] After 48 h, the plates were washed with PBS, fixed for 30 mins with 4% formaldehyde, washed again with PBS, and stored in PBS at 4° C. until staining. Cells were immunostained with immunofluorescence staining. Briefly, any residual formaldehyde was quenched with 50 mM ammonium chloride, after which cells were permeabilised (0.1% Triton X100) and stained with an antibody recognizing flavivirus envelope protein (Millipore, MAB10216). The primary antibodies were detected with an Alexa-488 conjugate secondary antibody (Life Technologies, A11001), and nuclei were stained with Hoechst. […] Normalized percentages of inhibition were calculated using the following formula: […]

[2] = system: Zika virus PF13; assay: Zika virus infection of Vero AD cells, immunofluorescence infectivity readout (Example 1); format: cell-based; settings: for inhibition of Zika virus infection: Vero AD cells, MOI 0.05 and 0.01, 600, 200, 60 μg/ml, 1 h pre-incubation, 48 h
Procedure: as §1

[3] = system: DENV1 (strain Hawaii); assay: microbe, parasite or virus in culture; format: cell-based, dengue virus
[4] = system: DENV2 (strain New Guinea C); assay: microbe, parasite or virus in culture; format: cell-based, dengue virus
[5] = system: DENV3 (strain H87); assay: microbe, parasite or virus in culture; format: cell-based, dengue virus
[6] = system: DENV4 (strain H241); assay: microbe, parasite or virus in culture; format: cell-based, dengue virus
[7] = system: ZIKV African lineage (Strain MP1751); assay: microbe, parasite or virus in culture; format: cell-based, Zika virus
[8] = system: ZIKV Asian lineage (PF/13); assay: microbe, parasite or virus in culture; format: cell-based, Zika virus
[9] = system: YF17D; assay: microbe, parasite or virus in culture; format: cell-based, yellow fever virus
[10] = system: Huh-7 cells; settings: MTT, 48 h
[11] = system: HeLa Kyoto cells; assay: MTT cytotoxicity in HeLa Kyoto cells (Example 2); settings: 48 h
[12] = system: Vero AD cells; assay: MTT cytotoxicity on uninfected Vero AD cells (Example 1); settings: 600, 200, 60 μg/ml
[13] = system: HeLa Kyoto cells; assay: MTT cytotoxicity on uninfected HeLa Kyoto cells (Example 1); settings: 600, 200, 60 μg/ml
[14] = system: Huh-7 and HeLa Kyoto cells; assay: MTT cytotoxicity, Example 2, cell line not specified in the statement; settings: highest concentration tested (10 mg/ml); no cytotoxicity at the other concentrations
[15] = system: rats; settings: cited from earlier work
[16] = system: Zika virus; settings: 200 μg/ml; Vero cells; cited from earlier work

For dextran sulfate [listing 1 of 3 here], the “inhibition of Zika virus infection” value [1] was “significant and dose dependent inhibition”, the “inhibition of Zika virus infection” value ([1]; listed as dextran sulfate) was “inhibits Zika virus infection in human Hela cells in a concentration dependent manner” and the “% of infection inhibition” value ([2]; 200 μg/ml, Vero cells, FIG. 2A (MOI 0.05)) was “more than 80%”. The “inhibition of Zika virus infection” value [2] was “significant and dose dependent inhibition”, the “inhibition of Zika virus infection” value ([2]; listed as dextran sulfate) was “inhibits Zika virus infection in Vero cells in a concentration dependent manner” and the “IC50 (inhibition of infection)” value [3] was ≤ 600 µg/mL. The “inhibition of virus infection into human cells” value [3] was > 90%, the EC50 ([3]; 48 h) was 290 µg/mL and the “IC50 (inhibition of infection)” value [4] was ≤ 600 µg/mL. For the same compound, the EC50 ([4]; 48 h) was 120 µg/mL, the “IC50 (inhibition of infection)” value [5] was ≤ 600 µg/mL and the EC50 ([5]; 48 h) was 30 µg/mL. The “IC50 (inhibition of infection)” value [6] was ≤ 600 µg/mL, the EC50 ([6]; 48 h) was 610 µg/mL and the “IC50 (inhibition of infection)” value [7] was “less than 0.140 mg/ml”. The EC50 ([7]; 48 h) was 60 µg/mL, the “IC50 (inhibition of infection)” value [8] was “less than 0.140 mg/ml” and the “inhibition of virus infection into human cells” value [8] was > 90%. For the same compound, the EC50 ([8]; 48 h) was 140 µg/mL, the “IC50 (inhibition of infection)” value [9] was “less than 0.05 mg/ml” and the “inhibition of virus infection into human cells” value [9] was > 90%. For the same compound, the EC50 ([9]; 48 h) was 40 µg/mL, the TC50 ([10]; table line Dengue virus 1 Hawaii strain (Huh-7)) was >10000 µg/mL and the TC50 ([10]; table line Dengue virus 2 New Guinea C strain (Huh-7)) was >10000 µg/mL. For the same compound, the TC50 ([10]; table line Dengue virus 3 H87 strain (Huh-7)) was >10000 µg/mL, the TC50 ([10]; table line Dengue virus 4 H241 strain (Huh-7)) was >10000 µg/mL and the TC50 ([10]; table line Yellow Fever virus 17D strain (Huh-7)) was >10000 µg/mL. The TC50 ([11]; table line Zika virus African strain (HeLa Kyoto)) was >10000 µg/mL, the TC50 ([11]; table line Zika virus Asian strain (HeLa Kyoto)) was >10000 µg/mL and the “cytotoxicity (MTT)” value [12] was “No significant cytotoxicity”. For the same compound, the “cytotoxicity (MTT)” value [13] was “No significant cytotoxicity” and the “cytotoxicity (maximal)” value [14] was ≤ 16%.
For dextran sulfate [listing 2 of 3 here], the toxicity to rats [15] is given as “highly toxic”.
In the case of dextran sulfate [listing 3 of 3 here], the “% infection inhibition” value [16] is listed as “about 60%”.
In the case of `CC[C@@]1([C@@H]2O[C@@H]([C@H]3O[C@@](O)(CO)[C@H](C)C[C@@H]3C)C[C@@H]2C)CC[C@H]([C@]2(C)CC[C@]3(C[C@H](O)[C@@H](C)[C@@H]([C@@H](C)[C@@H](OC)[C@H](C)C(=O)O)O3)O2)O1` [Monensin, Monensin sodium salt, reference compound], the EC50 ([3]; Dengue virus, DENV1, Huh-7) is reported as 1.19 nM, the EC50 ([4]; Dengue virus, DENV2, Huh-7) is reported as 0.88 nM and the EC50 ([5]; Dengue virus, DENV3, Huh-7) is reported as 0.69 nM. It also gave an EC50 ([6]; Dengue virus, DENV4, Huh-7) of 2.61 nM, an EC50 ([7]; Zika virus, HeLa Kyoto) of 70.7 nM and an EC50 ([8]; Zika virus, HeLa Kyoto) of 68.1 nM. The EC50 ([9]; Yellow fever virus, Huh-7) was 6.54 nM.

Source: patent US20240189343A1, “TREATMENT OF VIRUS INFECTIONS” (priority 2021, published 2024)
